Results as given in ChEMBL document CHEMBL1201862, “PubChem BioAssay data set” (2004).
Activity calls are given as the source filed them. For most assays here, no stated cut-off is given here; in the data, actives have a measured EC50 and inactives only a lower limit.

Tests used:
[1] = molecular target: T1, Heat shock factor protein 1 (Mus musculus, UniProt P38532); assay: decrease of HSF1-responsive luciferase luminescence – cell-based, NIH3T3, dose retest, confirmation (AID 2382); format: functional;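 further: NIH3T3 fibroblasts with HSF1-driven luciferase reporter stressed by proteasome inhibitor MG132; luminescence from HSF1-driven luciferase expression after 8 hours of MG132 stress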
T1 sequence (P38532 whole entry): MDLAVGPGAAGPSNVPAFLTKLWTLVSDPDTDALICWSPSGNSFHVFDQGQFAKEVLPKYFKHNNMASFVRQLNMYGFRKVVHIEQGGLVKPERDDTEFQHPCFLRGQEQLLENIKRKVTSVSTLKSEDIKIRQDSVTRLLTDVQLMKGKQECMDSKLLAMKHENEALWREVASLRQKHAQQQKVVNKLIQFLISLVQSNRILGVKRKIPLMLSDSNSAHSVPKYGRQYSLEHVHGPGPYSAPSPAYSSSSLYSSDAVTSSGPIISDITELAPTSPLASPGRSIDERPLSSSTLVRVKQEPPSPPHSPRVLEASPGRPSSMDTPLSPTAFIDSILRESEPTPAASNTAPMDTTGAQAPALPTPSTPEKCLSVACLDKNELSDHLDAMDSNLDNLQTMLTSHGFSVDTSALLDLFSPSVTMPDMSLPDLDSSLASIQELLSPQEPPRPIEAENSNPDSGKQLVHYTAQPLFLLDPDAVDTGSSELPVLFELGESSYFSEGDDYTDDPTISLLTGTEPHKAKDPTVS

[2] = Trypanosoma cruzi growth suppression in host cells – NIH3T3 host cells, beta-gal luminescence, confirmation (AID 2044); format: functional, cell-based;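 further: intracellular parasites grown in NIH/3T3 mouse fibroblasts as host cells; luminescent beta-galactosidase reporter signal from transgenic T. cruzi replicating inside host cells; inhibitors lower the luminescence signal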
[3] = NIH3T3 cell viability loss – ATP luminescence, mouse fibroblasts, counter-screen, dose response (AID 2010); format: functional, cell-based;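 further: cells exposed to compound for about 90 hours before reading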
[4] = Luminescence Cell-Based Dose Response HTS to Identify Activators of Luciferase Translation or Activity in H4 […] Cells. [Related pubchem assays: 1829 (Project Summary), 1814 (Primary HTS)]; format: functional
[5] = Luminescence Cell-Based Dose Confirmation HTS to Identify Activators of 5'UTR Stem-Loop Driven Alpha-Synuclein mRNA Translation in H4 Neuroglioblastoma Cells. [Related pubchem assays: 1829 (Project Summary), 1814 (Primary HTS)]; format: functional
[6] = system: H4; assay: Luminescence Cell-Based Dose Response HTS to Identify Activators of 5'UTR Stem-Loop Driven Prion Protein mRNA Translation in H4 Neuroglioblastoma Cells. [Related pubchem assays: 1829 (Project Summary), 1814 (Primary HTS)]; format: functional; settings: Homo sapiens
[7] = molecular target: T2, Cytochrome P450 1A2 (Homo sapiens, UniProt P05177);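 further: PubChem cytochrome P450 panel assay, CYP1A2 panel member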
T2 sequence (P05177 whole entry): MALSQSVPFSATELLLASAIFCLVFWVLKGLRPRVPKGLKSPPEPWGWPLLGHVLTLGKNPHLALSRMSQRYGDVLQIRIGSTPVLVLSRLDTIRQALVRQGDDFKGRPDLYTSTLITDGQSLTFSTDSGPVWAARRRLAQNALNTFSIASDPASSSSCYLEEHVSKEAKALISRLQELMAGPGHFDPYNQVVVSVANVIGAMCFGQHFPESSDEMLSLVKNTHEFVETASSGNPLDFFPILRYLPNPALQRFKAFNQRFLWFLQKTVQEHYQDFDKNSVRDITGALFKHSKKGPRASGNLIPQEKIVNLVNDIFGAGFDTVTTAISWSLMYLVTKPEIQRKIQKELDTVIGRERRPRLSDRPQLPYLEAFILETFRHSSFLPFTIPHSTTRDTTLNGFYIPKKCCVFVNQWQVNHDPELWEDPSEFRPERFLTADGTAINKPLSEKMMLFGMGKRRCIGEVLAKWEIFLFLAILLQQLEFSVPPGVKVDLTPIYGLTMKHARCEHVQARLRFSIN

For O=C(CCCNC(=O)/C(=C\c1ccccc1F)NC(=O)c1ccccc1)OCc1ccccc1, the EC50 [1] was > 195 µM (not active).
For CCN(CC)CCN1C(=O)Cn2c(C)c(C)c3cccc1c32, the EC50 [2] was 0.206 µM (active) and the EC50 [3] was > 60 µM (not active).
With O=C(Nc1ccc([N+](=O)[O-])cc1)C1(c2ccccc2)CCOCC1 the EC50 [1] was > 195 µM (not active).
In the case of Cc1ccccc1NC(=O)N1C2CCCC1CC(NC(=O)C1CC1)C2 (stereo unspecified), the EC50 [1] is reported as > 195 µM (not active).
In the case of COc1ccc(CCN(Cc2cccs2)S(=O)(=O)c2ccc(S(=O)(=O)N(C)C3CCCCC3)cc2)cc1OC, the EC50 [2] is reported as 0.878 µM (active) and the EC50 [3] is reported as > 60 µM (not active).
For O=C(Nc1ccccc1)[C@@H]1[C@@H]2C(=O)N(c3ccc(F)cc3)C(=O)[C@@H]2[C@H]2C=CC=NN21, the EC50 [4] was > 60 µM (not active), the EC50 [5] was > 120 µM (not active) and the EC50 [6] was > 120 µM (not active).
In the case of O=C(/C=C/c1ccccc1)NCCC1=CCCCC1, the EC50 [4] is reported as 2.93 µM (active), the EC50 [5] is reported as 0.378 µM (active) and the EC50 [6] is reported as 13.1 µM (active).
In the case of COc1ccc(N2CCN(C(=O)CSc3ncnc4scc(-c5ccc(C)cc5)c34)CC2)cc1, the EC50 [2] is reported as 1.03 µM (active) and the EC50 [3] is reported as > 60 µM (not active).
With COc1ccccc1Cn1nnc2c(=O)[nH]c(C3CCN(C(=O)c4ccc(C)cc4)CC3)nc21 the AC50 [7] was 25.1 µM (inconclusive).
In the case of CCOc1ccc(N/C(=C(/C(=O)C(=O)N2CCOCC2)C(=O)c2ccccc2)c2ccccc2)cc1, the EC50 [4] is reported as 20.3 µM (active), the EC50 [5] is reported as 13.3 µM (active) and the EC50 [6] is reported as 57.8 µM (active).
With Cc1ccc(C(=O)NCc2ccc(N3CCN(C)CC3)cc2)cc1C the EC50 [1] was > 195 µM (not active).
With O=C(/C=C/c1ccc2c(c1)OCO2)Nc1nncs1 the EC50 [4] was 0.1 µM (active) and the EC50 [6] was 18.6 µM (active).
For O=C(CSc1cccc2cccnc12)N1CCCC1, the EC50 [2] was 0.299 µM (active) and the EC50 [3] was 8.3 µM (active).
For Cc1cc(C)c(-c2nc3ccccc3s2)[nH]1, the EC50 [4] was 1.61 µM (active), the EC50 [5] was 0.207 µM (active) and the EC50 [6] was 30.3 µM (active).
In the case of c1ccc(CN2CCN(c3cnc4ccccc4n3)CC2)cc1, the EC50 [4] is reported as 26.8 µM (active), the EC50 [5] is reported as 4.79 µM (active) and the EC50 [6] is reported as 10.9 µM (active).
For CC(=O)NCC1=C(NC(C)=O)C2CC1C(C)(C)C2C (stereo unspecified), the EC50 [1] was > 195 µM (not active).
For CCc1cc(/C=N/C2CCCCC2)c(O)s1, the EC50 [1] was > 195 µM (not active), the EC50 [4] was > 120 µM (not active) and the EC50 [5] was 67.7 µM (active). The EC50 [6] was > 120 µM (not active).
For Cc1cc(C)[n+]2n1C([O-])=C(c1ccccc1)C2=O, the EC50 [4] was 29.1 µM (active) and the EC50 [6] was 13.1 µM (active).
With CC(C)(C)C1CCc2[nH]c3ccccc3c(=O)c2C1 (stereo unspecified) the EC50 [2] was 1.1 µM (active) and the EC50 [3] was > 60 µM (not active).
In the case of CNC(=S)N/N=C/c1c(Cl)cccc1Cl, the EC50 [1] is reported as > 195 µM (not active).
For CCOC(=O)CN1CC23C=CC(O2)C(C(=O)NC2CCCCC2)C3C1=O (stereo unspecified), the EC50 [1] was > 195 µM (not active).
For C[C@@H](C(=O)Nc1ccc2ccccc2c1)[C@@H]1C[C@@]1(C)[C@@H](NS(=O)(=O)c1ccc(-c2ccccc2)cc1)c1ccccc1, the AC50 [7] was 12.6 µM (inconclusive).
With CCCCN(C)C(=O)CCC(=O)Nc1ccc2nc(N3CCN(C)CC3)cc(C)c2c1 the EC50 [1] was > 195 µM (not active).
In the case of CC(NC(=O)c1ccccc1)c1nc2ccccc2n1Cc1ccccc1F (stereo unspecified), the AC50 [7] is reported as 28.2 µM (inconclusive).
In the case of O=C(O)C(=O)Nc1ccc(NC(=O)C(c2ccccc2)c2ccccc2)cc1, the EC50 [1] is reported as > 195 µM (not active).
For COc1ccc(-c2ccc(-c3nnn(CC(=O)N4CCOCC4)n3)cc2)cc1, the EC50 [4] was 4.67 µM (active), the EC50 [5] was 4.15 µM (active) and the EC50 [6] was 2.65 µM (active).
With COc1ccc(Cc2nnc(NC(=O)c3ccco3)s2)cc1 the AC50 [7] was 11.2 µM (inconclusive).
With O=S(=O)(NC(=NC(=S)Nc1ccccc1)c1ccccc1)c1ccc(Cl)cc1 the EC50 [4] was 59.7 µM (active), the EC50 [5] was 41.4 µM (active) and the EC50 [6] was 63.2 µM (active).
In the case of CC(C)C(=O)Nc1cccc(-c2nc3ncccc3o2)c1, the EC50 [1] is reported as > 195 µM (not active).
For C/C(CC1CC(COCC(C)C)OC1=O)=N\Nc1nc(-c2ccccc2)cs1 (stereo unspecified), the EC50 [4] was > 120 µM (not active), the EC50 [5] was > 120 µM (not active) and the EC50 [6] was 71.2 µM (active).
With Cc1cc(N2CCN(C)CC2)nc2ccc(NC(=O)c3cccnc3Cl)cc12 the EC50 [1] was > 195 µM (not active).
In the case of O=C(COc1ccc(Cl)cc1Cl)NC(=O)N1CCCCC1, the EC50 [4] is reported as 30.6 µM (active), the EC50 [5] is reported as 6.03 µM (active) and the EC50 [6] is reported as 92.5 µM (active).
In the case of O=C(Nc1ccn(Cc2ccccc2)n1)c1ccc2c(c1)OCO2, the EC50 [4] is reported as 18.5 µM (active), the EC50 [5] is reported as 15.6 µM (active) and the EC50 [6] is reported as > 120 µM (not active).
With COc1ccccc1C(=O)NCC(=O)N/N=C/c1ccc2c(c1)OCO2 the EC50 [1] was > 195 µM (not active).
With COC(=O)[C@@]1(Cc2ccc(OC)cc2)[C@H]2c3cc(C(=O)N4CCCC4)n(CCc4c[nH]c5cc(F)ccc45)c3C[C@H]2CN1C(=O)c1ccccc1 the AC50 [7] was 39.8 µM (inconclusive).
For O=C(c1ccc(Cl)cc1)N1CCCC(c2ccccc2)=N1, the AC50 [7] was 0.141 µM (inconclusive).
For Fc1ccc(-c2csc(/C=C/c3ccc4c(c3)OCO4)n2)cc1, the EC50 [4] was 9.07 µM (active), the EC50 [5] was 9.2 µM (active) and the EC50 [6] was 46.8 µM (active).
In the case of COCCCNC(=O)Cn1cnc2sc(C)c(S(=O)(=O)N3CCN(c4ccccc4OC)CC3)c2c1=O, the EC50 [1] is reported as > 195 µM (not active).
In the case of COC(=O)c1ccc(OCc2cc(=O)n3ccsc3n2)cc1, the EC50 [4] is reported as > 120 µM (not active) and the EC50 [5] is reported as 21.2 µM (active).
For CC(C)Cc1nnc(NC(=O)c2cccc(S(=O)(=O)N3CCN(C)CC3)c2)s1, the EC50 [2] was 0.1 µM (active) and the EC50 [3] was > 60 µM (not active).
In the case of O=C(N/N=C\c1ccc2c(c1)OCO2)c1ccc(Cn2cc(Br)c([N+](=O)[O-])n2)o1, the EC50 [2] is reported as 0.408 µM (active) and the EC50 [3] is reported as > 60 µM (not active).
For Cc1[nH]c2ccccc2c1C(=O)CSc1nc2cc(S(=O)(=O)N3CCCCC3)ccc2o1, the EC50 [2] was 2.54 µM (active) and the EC50 [3] was 18.2 µM (active).
With Fc1ccc(COc2ccc(Br)cc2CNCc2ccncc2)cc1 the EC50 [2] was 0.78 µM (active) and the EC50 [3] was > 30 µM (not active).
In the case of CCOc1ccc(CN2CCN(Cc3cccn3-c3cccnc3)CC2CCO)cc1 (stereo unspecified), the EC50 [2] is reported as 1.89 µM (active) and the EC50 [3] is reported as > 60 µM (not active).
For O=C(CCC1CCCNC1)c1ccccc1 (stereo unspecified), the EC50 [1] was > 195 µM (not active).
For CCCS(=O)(=O)c1nc(S(=O)(=O)c2ccc(C)cc2)c(N2CCN(CCO)CC2)s1, the EC50 [4] was 8.79 µM (active), the EC50 [5] was 18.7 µM (active) and the EC50 [6] was > 120 µM (not active).
For O=C(CN1CCN(C2CCCCC2)CC1)NCCC1=CCCCC1, the AC50 [7] was 20 µM (inconclusive).
With CC(C)(C)CC(=O)NCCc1csc(-c2ccccc2)n1 the EC50 [2] was 1.1 µM (active) and the EC50 [3] was > 60 µM (not active).
With COc1ccc(-c2cn3c(C)c(C(=O)NCCN4CCOCC4)sc3n2)cc1 the AC50 [7] was 0.126 µM (inconclusive).
In the case of NC(=O)C1(N2CCCCC2)CCN(C2CC(=O)NC2=O)CC1 (stereo unspecified), the EC50 [4] is reported as > 120 µM (not active), the EC50 [5] is reported as > 120 µM (not active) and the EC50 [6] is reported as > 120 µM (not active).
In the case of COC(=O)C1=C(N)N(c2ccccc2C(F)(F)F)C2=C(C(=O)CCC2)C1c1ccc2c(c1)OCO2 (stereo unspecified), the EC50 [2] is reported as 1.24 µM (active), the EC50 [3] is reported as > 60 µM (not active) and the AC50 [7] is reported as 31.6 µM (inconclusive).
